Reference: EPA's ToxRefDB 2

Legend:
primate [1] = details: Sub-acute repeat dose toxicity, Oral, Gavage/Intubation, dose end: 30 day, group: systemic
primate [2] = details: Sub-acute repeat dose toxicity; Oral; Gavage/Intubation; dose end: 4 day; group: systemic; systemic / in life observation / clinical signs / ataxia + systemic / in life observation / clinical signs / emesis + systemic / in life …
rat [3] = details: Sub-acute repeat dose toxicity, Oral, Gavage/Intubation, dose end: 30 day, group: systemic
primate [4] = details: Sub-acute repeat dose toxicity; Oral; Gavage/Intubation; dose end: 10 day; group: systemic; systemic / clinical chemistry / alanine aminotransferase (alt/sgpt) / alanine aminotransferase (alt/sgpt) + systemic / clinical chemistry / …
rat [5] = details: Sub-acute repeat dose toxicity; Oral; Gavage/Intubation; dose end: 10 day; group: systemic; systemic / hematology / erythrocyte (rbc) count differential / erythrocyte (rbc) + systemic / hematology / hematocrit (hct) / hematocrit (…
dog [6] = details: Subchronic oral toxicity in nonrodent, beagle, Feed, dose end: 90 day, group: systemic, systemic / clinical chemistry / alanine aminotransferase (alt/sgpt) / alanine aminotransferase (alt/sgpt) + systemic / clinical chemistry / …
dog [7] = details: Chronic toxicity; beagle; Oral; Feed; dose end: 107 week; group: systemic; systemic / clinical chemistry / [other] / [other] + systemic / clinical chemistry / alanine aminotransferase (alt/sgpt) / alanine …
mouse [8] = details: Carcinogenicity; cd1; Oral; Feed; dose end: 80 week; group: systemic; systemic / pathology microscopic / liver / hypertrophy + systemic / pathology microscopic / liver / infiltration cellular + systemic / …
rat [9] = details: Multigenerational reproductive toxicity study, sprague dawley, Oral, Feed, dose end: 2 generation
rat [10] = details: Combined chronic toxicity/carcinogenicity, wistar, Oral, Feed, dose end: 24 month, group: systemic
rat [11] = details: Subchronic oral toxicity in rodents, other, Feed, dose end: 90 day, group: systemic, systemic / in life observation / body weight / body weight gain + systemic / organ weight / kidney / nos + systemic / organ weight / liver…
rat [12] = details: Prenatal developmental toxicity study, wistar, Oral, Gavage/Intubation, dose end: 20 GD
mouse [13] = details: Subchronic oral toxicity in rodents, b6c3f1, Gavage/Intubation, dose end: 13 week, group: systemic
mouse [14] = details: Sub-acute repeat dose toxicity, b6c3f1, Oral, Gavage/Intubation, dose end: 15 day, group: systemic
rat [15] = details: Subchronic oral toxicity in rodents, fischer, Gavage/Intubation, dose end: 13 week, group: systemic, systemic / pathology gross / spleen / enlarged + systemic / pathology microscopic / kidney / hemosiderosis + systemic / pathology …
rat [16] = details: Sub-acute repeat dose toxicity, fischer, Oral, Gavage/Intubation, dose end: 14 day, group: systemic
mouse [17] = details: Carcinogenicity, b6c3f1, Oral, Gavage/Intubation, dose end: 103 week, group: systemic
rat [18] = details: Carcinogenicity, fischer, Oral, Gavage/Intubation, dose end: 103 week, group: systemic
mouse [19] = details: Carcinogenicity; b6c3f1; Oral; Feed; dose end: 80 week; group: systemic; systemic / pathology microscopic / liver / carcinoma
rat [20] = details: Carcinogenicity; other; Oral; Feed; dose end: 80 week; group: systemic; systemic / in life observation / body weight / body weight + systemic / in life observation / clinical signs / [other] + systemic / in life …
rat [21] = details: Combined chronic toxicity/carcinogenicity; fischer; Oral; Feed; dose end: 104 week; group: systemic; systemic / pathology microscopic / adrenal gland / pheochromocytoma benign + systemic / pathology microscopic / adrenal gland / …
rat [22] = details: Subchronic oral toxicity in rodents, fischer, Feed, dose end: 13 week, group: systemic
rat [23] = details: Carcinogenicity; fischer; Oral; Feed; dose end: 105 week; group: systemic; systemic / in life observation / body weight / body weight + systemic / pathology microscopic / kidney / nephropathy + systemic / pathology …
mouse [24] = details: Sub-acute repeat dose toxicity; b6c3f1; Oral; Feed; dose end: 14 day; group: systemic; systemic / in life observation / clinical signs / feces, discoloration
mouse [25] = details: Combined chronic toxicity/carcinogenicity; b6c3f1; Oral; Feed; dose end: 104 week; group: systemic; systemic / pathology microscopic / blood / lymphoma malignant + systemic / pathology microscopic / ovary / interstitial stromal tumor + …
rat [26] = details: Subchronic oral toxicity in rodents, fischer, Feed, dose end: 13 week, group: systemic; remark: listed apart in the source
rat [27] = details: Sub-acute repeat dose toxicity; fischer; Oral; Feed; dose end: 14 day; group: systemic; systemic / in life observation / clinical signs / feces, discoloration + systemic / in life observation / food consumption / food …
mouse [28] = details: Subchronic oral toxicity in rodents, b6c3f1, Feed, dose end: 13 week, group: systemic
mouse [29] = details: Subchronic oral toxicity in rodents, b6c3f1, Feed, dose end: 13 week, group: systemic; remark: listed apart in the source
mouse [30] = details: Carcinogenicity, b6c3f1, Oral, Feed, dose end: 105 week, group: systemic
[31] = systemic / clinical chemistry / cytochrome p450, nos / cytochrome p450, nos + systemic / hematology / blood clotting / blood clotting - …
[32] = systemic / clinical chemistry / cholesterol / cholesterol + systemic / clinical chemistry / cytochrome p450, nos / cytochrome p450, nos + …
[33] = systemic / clinical chemistry / urea nitrogen / urea nitrogen + systemic / hematology / neutrophils / neutrophils
[34] = group: offspring, systemic / in life observation / body weight / offspring (pup) weight + systemic / in life observation / body weight / offspring (pup) …
[35] = group: parental, systemic / organ weight / kidney / absolute + systemic / organ weight / kidney / relative to body weight + systemic / organ weight / liver…
[36] = systemic / in life observation / body weight / body weight gain + systemic / pathology microscopic / brain / vacuolization + systemic / …
[37] = systemic / pathology microscopic / spleen / hemosiderosis + systemic / pathology microscopic / uterus / adenocarcinoma
[38] = group: developmental, developmental / developmental malformation / bone / short supernumerary
[39] = group: developmental, developmental / developmental malformation / bone / short supernumerary + systemic / in life observation / body weight / fetal weight
[40] = group: maternal, systemic / in life observation / body weight / body weight gain + systemic / in life observation / food consumption / food consumption
[41] = systemic / in life observation / body weight / body weight
[42] = systemic / pathology gross / spleen / enlarged + systemic / pathology microscopic / spleen / hematopoietic cell proliferation + systemic / …
[43] = systemic / pathology gross / spleen / enlarged
[44] = systemic / pathology gross / spleen / enlarged + systemic / pathology microscopic / spleen / congestion + systemic / pathology microscopic…
[45] = systemic / pathology microscopic / stomach / hyperplasia
[46] = systemic / pathology microscopic / stomach / squamous cell papilloma + systemic / pathology microscopic / stomach / hyperplasia
[47] = systemic / pathology microscopic / liver / inflammation + systemic / pathology microscopic / spleen / hematopoietic cell proliferation + …
[48] = systemic / pathology microscopic / spleen / hematopoietic cell proliferation + systemic / pathology microscopic / spleen / hemosiderosis
[49] = systemic / clinical chemistry / bile acids / bile acids + systemic / in life observation / food consumption / food consumption + systemic / …
[50] = systemic / organ weight / liver / absolute + systemic / organ weight / liver / relative to body weight
[51] = systemic / organ weight / epididymis / absolute + systemic / organ weight / testes / absolute + systemic / organ weight / testes / relative …
[52] = systemic / organ weight / testes / absolute
[53] = systemic / organ weight / epididymis / nos + systemic / organ weight / liver / absolute + systemic / organ weight / testes / absolute + …
[54] = systemic / pathology microscopic / spleen / hematopoietic cell proliferation + systemic / pathology microscopic / testes / degeneration
[55] = systemic / pathology microscopic / spleen / hematopoietic cell proliferation + systemic / pathology microscopic / testes / degeneration + …

## CC(C)(C)c1nnc2ccc(-c3ocnc3-c3cc(F)c(F)cc3F)cn12
Primate [1]; [31]
  LOAEL: > 100 mg/kg/day
  NEL: 3 mg/kg/day
  NOAEL: ≥ 100 mg/kg/day
Primate [1]; systemic / hematology / fibrinogen / fibrinogen
  LEL: 10 mg/kg/day
Primate [2]
  LEL: 100 mg/kg/day
  LOAEL: > 100 mg/kg/day
  NEL: < 100 mg/kg/day
  NOAEL: ≥ 100 mg/kg/day
Rat [3]; [32]
  LOAEL: > 100 mg/kg/day
  NOAEL: ≥ 100 mg/kg/day
Rat [3]; [33]
  LEL: 3 mg/kg/day
  NEL: < 3 mg/kg/day
Primate [4]
  LEL: 10 mg/kg/day
  LOAEL: > 100 mg/kg/day
  NEL: < 10 mg/kg/day
  NOAEL: ≥ 100 mg/kg/day
Rat [5]
  LEL: 10 mg/kg/day
  LOAEL: > 100 mg/kg/day
  NEL: < 10 mg/kg/day
  NOAEL: ≥ 100 mg/kg/day

## Nc1c(Cl)cc([N+](=O)[O-])cc1Cl [Dicloran]
Dog [6]
  LEL: 75 mg/kg/day
  LOAEL: 75 mg/kg/day
  NEL: 2.5 mg/kg/day
  NOAEL: 2.5 mg/kg/day
Dog [7]
  LEL: 75 mg/kg/day
  LOAEL: 75 mg/kg/day
  NEL: 2.5 mg/kg/day
  NOAEL: 2.5 mg/kg/day
Mouse [8]
  LEL: 86.5 mg/kg/day
  LOAEL: 86.5 mg/kg/day
  NEL: 24.5 mg/kg/day
  NOAEL: 24.5 mg/kg/day
Rat [9]; [34]
  LEL: 87 mg/kg/day
  LOAEL: 87 mg/kg/day
  NEL: 16.9 mg/kg/day
  NOAEL: 16.9 mg/kg/day
Rat [9]; group: parental, systemic / in life observation / clinical signs / discharge on cageboard
  NEL: 16.9 mg/kg/day
Rat [9]; [35]
  LEL: 87 mg/kg/day
  LOAEL: 87 mg/kg/day
  NOAEL: 16.9 mg/kg/day
Rat [10]; [36]
  LOAEL: 71 mg/kg/day
  NOAEL: 11.3 mg/kg/day
Rat [10]; [37]
  LEL: 3.7 mg/kg/day
  NEL: < 3.7 mg/kg/day
Rat [11]
  LEL: 150 mg/kg/day
  LOAEL: 150 mg/kg/day
  NEL: 5 mg/kg/day
  NOAEL: 5 mg/kg/day
Rat [12]; [38]
  LEL: 50 mg/kg/day
  NEL: < 50 mg/kg/day
Rat [12]; [39]
  LOAEL: 100 mg/kg/day
  NOAEL: 50 mg/kg/day
Rat [12]; [40]
  LEL: 50 mg/kg/day
  LOAEL: 50 mg/kg/day
  NEL: < 50 mg/kg/day
  NOAEL: < 50 mg/kg/day

## CN(C)c1ccccc1 [N,N-Dimethylaniline]
Mouse [13]; [41]
  LEL: 31 mg/kg/day
  NEL: < 31 mg/kg/day
Mouse [13]; [42]
  LOAEL: 62 mg/kg/day
  NOAEL: 31 mg/kg/day
Mouse [14]; [43]
  LEL: 188 mg/kg/day
Mouse [14]; [44]
  LOAEL: 375 mg/kg/day
  NEL: 94 mg/kg/day
  NOAEL: 188 mg/kg/day
Rat [15]
  LEL: 31 mg/kg/day
  LOAEL: 31 mg/kg/day
  NEL: < 31 mg/kg/day
  NOAEL: < 31 mg/kg/day
Rat [16]; [43]
  LEL: 94 mg/kg/day
  NEL: < 94 mg/kg/day
Rat [16]; [42]
  LOAEL: 375 mg/kg/day
  NOAEL: 188 mg/kg/day
Mouse [17]; [45]
  LEL: 15 mg/kg/day
  NEL: < 15 mg/kg/day
Mouse [17]; [46]
  LOAEL: > 30 mg/kg/day
  NOAEL: ≥ 30 mg/kg/day
Rat [18]; [47]
  LOAEL: 30 mg/kg/day
  NOAEL: 3 mg/kg/day
Rat [18]; [48]
  LEL: 3 mg/kg/day
  NEL: < 3 mg/kg/day

## Nc1cc(Cl)cc(C(=O)O)c1Cl [Chloramben]
Mouse [19]
  LEL: 1500 mg/kg/day
  LOAEL: > 3000 mg/kg/day
  NEL: < 1500 mg/kg/day
  NOAEL: ≥ 3000 mg/kg/day
Rat [20]
  LEL: 1000 mg/kg/day
  LOAEL: > 1000 mg/kg/day
  NEL: 500 mg/kg/day
  NOAEL: ≥ 1000 mg/kg/day

## O=C1OC(c2ccc(O)cc2)(c2ccc(O)cc2)c2ccccc21 [Phenolphthalein]
Rat [21]
  LEL: 500 mg/kg/day
  LOAEL: > 2000 mg/kg/day
  NEL: < 500 mg/kg/day
  NOAEL: ≥ 2000 mg/kg/day
Rat [22]; systemic / clinical chemistry / bile acids / bile acids
  LEL: 383 mg/kg/day
Rat [22]; [49]
  LOAEL: > 3490 mg/kg/day
  NEL: 192 mg/kg/day
  NOAEL: ≥ 3490 mg/kg/day
Rat [23]
  LEL: 500 mg/kg/day
  LOAEL: 500 mg/kg/day
  NEL: < 500 mg/kg/day
  NOAEL: < 500 mg/kg/day
Mouse [24]
  LEL: 15000 mg/kg/day
  LOAEL: > 15000 mg/kg/day
  NEL: 7500 mg/kg/day
  NOAEL: ≥ 15000 mg/kg/day
Mouse [25]
  LEL: 300 mg/kg/day
  LOAEL: > 1200 mg/kg/day
  NEL: < 300 mg/kg/day
  NOAEL: ≥ 1200 mg/kg/day
Rat [26]; [50]
  LOAEL: > 3500 mg/kg/day
  NEL: 400 mg/kg/day
  NOAEL: ≥ 3500 mg/kg/day
Rat [26]; systemic / organ weight / liver / relative to body weight
  LEL: 800 mg/kg/day
Rat [27]
  LEL: 10500 mg/kg/day
  LOAEL: > 10500 mg/kg/day
  NEL: 4500 mg/kg/day
  NOAEL: ≥ 10500 mg/kg/day
Mouse [28]; [51]
  LOAEL: 2000 mg/kg/day
  NOAEL: 1000 mg/kg/day
Mouse [28]; [52]
  LEL: 500 mg/kg/day
  NEL: < 500 mg/kg/day
Mouse [29]; [53]
  LOAEL: > 9140 mg/kg/day
  NOAEL: ≥ 9140 mg/kg/day
Mouse [29]; [52]
  LEL: 509 mg/kg/day
  NEL: < 509 mg/kg/day
Mouse [30]; [54]
  LOAEL: 300 mg/kg/day
  NOAEL: < 300 mg/kg/day
Mouse [30]; [55]
  LEL: 300 mg/kg/day
  NEL: < 300 mg/kg/day
